According to patent publication US20120207862A1, “ORAL INHIBITORS OF AGE-RELATED NADH OXIDASE (arNOX), COMPOSITIONS AND NATURAL SOURCES” (priority 2010, published 2012):
Several values for one entry are separate records, joined by “and”; a condition that tells them apart may be missing. Equal entries are not always repeated. Entries after “also recorded” stand apart in the source; their conditions may differ. Where two headings read alike, the source gives them in different places. Each block holds one compound with its values, some of them ahead of it.

Tests used:
[1] = tested on: T1, arNOX; test: arNOX inhibition assay (superoxide-dependent reduction of ferric cytochrome c); format: biochemical, human; details: read-out: EC50 (dose which causes 50% inhibition of arNOX activity)
T1 construct: other: infusion; human saliva

[2] = tested on: arNOX; test: as above; format: biochemical, human
Protocol: Reduction of ferric cytochrome c by superoxide was employed as a standard measure of superoxide formation (Mayo, L. A. and Curnutte, J., 1990, Meth. Enzyme. 186:567-575; Butler, J. et al., 1982, J. Biol. Chem. 257:10747-10750). This is a widely accepted method when coupled to superoxide dismutase inhibition for the measurement of superoxide generation. The assay consists of 150 μl buffy coats in PBSG buffer (8.06 g NaCl, 0.2 g KCl, 0.18 g Na2HPO4, 0.13 g CaCl2, 0.1. g MgCl2, 1.35 g glucose dissolved in 1000 ml deionized water, adjusted to pH 7.4, filtered and stored at 4° C.). Rates were determined using an SLM Aminco DW-2000 spectrophotometer (Milton Roy, Rochester, N.Y., USA) in the dual wave length mode of operation with continuous measurements over 1 min every 1.5 min. After 45 min, test compounds were added and the reaction was continued for an additional 45 min. After 45 min, a millimolar extinction coefficient of 19.1 cm^−1 was used for reduced ferricytochrome c. Extracts were made of the potentially inhibitory compounds in water unless otherwise indicated.
Infusions are prepared by adding 125 mg material (for herbs or spices, dry weight) to 1 ml boiling water. The solutions are allowed to cool slowly and steep at room temperature overnight. Pure compounds (gallic acid, apigenin, derivatives of benzoic acid) are prepared as 100 mM stock solutions in water, ethanol or DMSO, depending on solubility in a particular liquid.
Tinctures are prepared by adding […] of material (fresh weight) to 1 ml ethanol and allowed to steep overnight (or from about 3-30 hours, about 6-24, or about 12-20 or about 18 hours). Insoluble and particulate material is allowed to sediment, and the soluble material is decanted. Tinctures, infusions and stock solutions of pure compounds are tested undiluted, diluted 1:10, 1:100 and 1:1000 to determine EC50 (the dose which causes 50% inhibition of arNOX activity). For tinctures or infusions, aliquots of 60 μl are added to 2.5 ml arNOX assay. For stock solutions (undiluted or diluted), aliquots of 2.5 μl are added to 2.5 ml arNOX assay. For example, addition of an undiluted 100 mM stock solution results in a final concentration of 100 μM in the assay.

[3] = tested on: arNOX; details: Morré et al., 2008, BioFactors 32:231-235; cited from earlier work
[4] = Solubility in water; format: physicochemical
[5] = tested on: salivary arNOX; test: Kinetics of salivary arNOX inhibition after oral administration to a volunteer; format: in vivo, human; details: single oral dose at time 0 h, subject
Protocol: To determine the kinetics of arNOX inhibition, capsules containing 350 to 700 mg of selected seasonings and active ingredients were administered orally to a volunteer and the arNOX activity of collected saliva was analyzed serially. arNOX activity of saliva and sera correlate closely (FIG. 14) such that salivary arNOX is reflective of the inhibition of serum arNOX.

EC50 [1]: 200 nM
Compound: Cc1cc(C)cc(C(=O)O)c1 [3,5-dimethylbenzoic acid]
arNOX inhibition (in words) [2]: most inhibitory

Compound: COC1=C(OC)C(=O)C(C/C=C(\C)CC/C=C(\C)CC/C=C(\C)CC/C=C(\C)CC/C=C(\C)CC/C=C(\C)CC/C=C(\C)CCC=C(C)C)=C(C)C1=O [CoQ8]
inhibition of arNOX activity of aging cells [3]: inhibited

Compound: COC1=C(OC)C(=O)C(C/C=C(\C)CC/C=C(\C)CC/C=C(\C)CC/C=C(\C)CC/C=C(\C)CC/C=C(\C)CC/C=C(\C)CC/C=C(\C)CCC=C(C)C)=C(C)C1=O [CoQ9]
inhibition of arNOX activity of aging cells [3]: inhibited

Compound: COC1=C(OC)C(=O)C(C/C=C(\C)CC/C=C(\C)CC/C=C(\C)CC/C=C(\C)CC/C=C(\C)CC/C=C(\C)CC/C=C(\C)CC/C=C(\C)CC/C=C(\C)CCC=C(C)C)=C(C)C1=O [CoQ10]
inhibition of arNOX activity of aging cells [3]: inhibited

Compound: Oc1ncnc2[nH]ncc12 [allopuranol, reference compound]
arNOX inhibition (in words) [2]: inhibited arNOX to varying degrees

water solubility [4]: insoluble in water | water solubility ([4]; listed as apigenin): low water solubility
Compound: O=c1cc(-c2ccc(O)cc2)oc2cc(O)cc(O)c12 [apigenin aglycone, apigenin]
inhibition of arNOX activity at 10 μM ([2]; 10 μM, supplied as DMSO solution): inhibited arNOX activity

Compound: O=C(O)c1cc(O)c(O)c(O)c1 [gallic acid, 3,4,5-trihydroxybenzoic acid]
maximum inhibition of salivary arNOX [5]: 84% | time of maximum inhibition of salivary arNOX [5]: 8 h | arNOX inhibition (in words) [2]: active | effective final concentration [2]: 0.14 μM and 10 ng/mL

Compound: O[C@H]1[C@H](O)[C@@H](O)[C@H](O)[C@@H](O)[C@H]1O [inositol]
arNOX inhibition (in words) [2]: inhibited arNOX to varying degrees

Compound: O=P(O)(O)O[C@H]1[C@H](OP(=O)(O)O)[C@@H](OP(=O)(O)O)[C@H](OP(=O)(O)O)[C@@H](OP(=O)(O)O)[C@H]1OP(=O)(O)O [phytic acid]
arNOX inhibition (in words) [2]: inhibited arNOX to varying degrees

Compound: OCc1ccccc1O[C@@H]1O[C@H](CO)[C@@H](O)[C@H](O)[C@H]1O [salicin, reference compound]
arNOX inhibition (in words) [2]: inhibited arNOX to varying degrees | type of arNOX inhibition from kinetic data ([2]; FIG. 1): competitive inhibitor

Compound: (±)-catechin
arNOX inhibition (in words) [2]: inhibits arNOX; also recorded: potent arNOX inhibitor | effective final concentration [2]: 100 μM and 300 ng/mL
